Experimental findings from patent US20040082551A1, “Novel pyrazoles and their use as p38 kinase inhibitors” (priority 2002, published 2004) are described below.

Structures can show the parent of a compound that is named as a salt.

The IC50 is the point on the concentration scale where inhibition reaches its midpoint.

The target in the first assay is T1, human p38 kinase alpha (Homo sapiens, UniProt Q16539).
T1 construct: The coding region of the human p38α cDNA was obtained by PCR-amplification from RNA isolated from the human monocyte cell line THP.1; made in house; host or cells: E. coli DH10B
T1 sequence (Q16539 whole entry): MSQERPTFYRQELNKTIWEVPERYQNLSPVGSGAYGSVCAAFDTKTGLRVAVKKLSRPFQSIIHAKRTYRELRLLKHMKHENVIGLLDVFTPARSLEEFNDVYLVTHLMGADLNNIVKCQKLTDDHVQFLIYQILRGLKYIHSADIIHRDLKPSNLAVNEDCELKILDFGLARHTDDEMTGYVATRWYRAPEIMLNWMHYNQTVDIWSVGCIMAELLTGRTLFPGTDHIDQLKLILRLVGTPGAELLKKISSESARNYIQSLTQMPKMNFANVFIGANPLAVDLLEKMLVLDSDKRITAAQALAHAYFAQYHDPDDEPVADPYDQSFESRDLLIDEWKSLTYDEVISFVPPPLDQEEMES
The assay is described as follows: In vitro p38 kinase inhibition analysis (PHAS-I 32P-ATP or EGFRP 33P-ATP format). Type of assay: biochemical. Particulars: Table 1; compounds of Examples 1-28; one of two in vitro assay methods; 4-methylbenzenesulfonate; read-out: p38α Kinase Inhibition (IC50 in μM). As for the experimental part:
The ability of compounds to inhibit human p38 kinase alpha was evaluated using one of two in vitro assay methods. In the first method, activated human p38 kinase alpha phosphorylates a biotinylated substrate, PHAS-I (phosphorylated heat and acid stable protein-insulin inducible), in the presence of gamma ^32P-ATP (^32P-ATP). PHAS-I was biotinylated before the assay, and provided a means of capturing the substrate which was phosphorylated during the assay. p38 Kinase was activated by MKK6. Compounds were tested in 10 fold serial dilutions over the range of 100 μM to 0.001 μM using 1% DMSO. Each concentration of inhibitor was tested in triplicate.
All reactions were carried out in 96 well polypropylene plates. Each reaction well contained 25 mM HEPES pH 7.5, 10 mM magnesium acetate, and 50 μM unlabeled ATP. […] Activated human p38 kinase alpha was used at 1 μg per 50 μl reaction volume, representing a final concentration of 0.3 μM. Gamma ^32P-ATP was used to follow the phosphorylation of PHAS-I. ^32P-ATP has a specific activity of 3000 Ci/mmol, and was used at 1.2 μCi per 50 μl reaction volume. The reaction proceeded either for one hr or overnight at 30° C.
Following incubation, 20 μl of reaction mixture was transferred to a high capacity streptavidin coated filter plate (SAM-streptavidin-matrix, Promega) prewetted with phosphate buffered saline. The transferred reaction mix was allowed to contact the streptavidin membrane of the Promega plate for 1-2 min. […] Filter plates were air dried and 20 μl of scintillant was added. The plates were sealed and counted.
A second assay format was alternatively employed. This assay is based on p38 kinase alpha being induced phosphorylation of EGFRP (epidermal growth factor receptor peptide, a 21 mer) in the presence of ^33P-ATP. Compounds were tested in 10 fold serial dilutions over the range of 100 μM to 0.001 μM in 10% DMSO. Each concentration of inhibitor was tested in triplicate. Compounds were evaluated in 50 μl reaction volumes in the presence of 25 mM HEPES pH 7.5, 10 mM magnesium acetate, 4% glycerol, 0.4% bovine serum albumin, 0.4 mM DTT, 50 μM unlabeled ATP, 25 μg EGFRP (200 μM), and 0.05 uCi gamma ^33P-ATP. Reactions were initiated by addition of 0.09 μg of activated, purified human GST-p38 kinase alpha. Activation was carried out using GST-MKK6 (5:1,p38:MKK6) for one hr at 30° C. in the presence of 50 μM ATP. Following incubation for 60 min at room temperature, the reaction was stopped by addition of 150 μl of AG 1×8 resin in 900 mM sodium formate buffer, pH 3.0 (1 volume resin to 2 volumes buffer). The mixture was mixed three times with pipetting. Afterward, the resin was allowed to settle. A total of 50 μl of clarified solution head volume was transferred from the reaction wells to Microlite-2 plates. 150 μl of Microscint 40 was then added to each well of the Microlite plate, and the plate was sealed, mixed, and counted.
In the case of `C[C@@H](N[C@H]1CC[C@H](c2[nH]nc(-c3ccc(Cl)cc3)c2-c2ccncn2)CC1)c1ccccc1` [Example 2, 4-[3-(4-chlorophenyl)-4-pyrimidin-4-yl-1H-pyrazol-5-yl]-N-[(1R)-1-phenylethyl]-trans-cyclohexanamine 4-methylbenzenesulfonate], the IC50 is 0.0279 µM.

The same assay, now with this note: Table 1; compounds of Examples 1-28; one of two in vitro assay methods; Hydrochloride Hydrate; read-out: p38α Kinase Inhibition (IC50 in μM).
`CN(CCO)[C@H]1CC[C@H](c2[nH]nc(-c3ccc(Cl)cc3)c2-c2ccncn2)CC1` [Example 12, 2-[{4-[3-(4-chlorophenyl)-4-pyrimidin-4-yl-1H-pyrazol-5-yl]cyclohexyl)(methyl)amino]ethanol Hydrochloride Hydrate]: the IC50 is 0.0379 µM.

The same assay, now with this note: Table 1; compounds of Examples 1-28; one of two in vitro assay methods; Trifluoroacetate Hydrate; read-out: p38α Kinase Inhibition (IC50 in μM).
In the case of `CN(CCO)[C@H]1CC[C@H](c2[nH]nc(-c3ccc(Cl)cc3)c2-c2ccncn2)CC1` [Example 11, 2-[{4-[3-(4-chlorophenyl)-4-pyrimidin-4-yl-1 H-pyrazol-5-yl]cyclohexyl)(methyl)amino]ethanol Trifluoroacetate Hydrate], the IC50 is 0.0271 µM.

Still in this assay, the particulars now being: Table 1; compounds of Examples 1-28; one of two in vitro assay methods; read-out: p38α Kinase Inhibition (IC50 in μM).
For `CC(C)N[C@H]1CC[C@H](c2[nH]nc(-c3ccc(F)c(F)c3)c2-c2ccncn2)CC1` [Example 13, 4-[3-(3,4-difluorophenyl)-4-pyrimidin-4-yl-1H-pyrazol-5-yl]-N-isopropylcyclohexanamine], the IC50 was 0.115 µM.
On the same count and under the same terms, with `CN(C)CC(=O)OCC(=O)N1CCC(c2[nH]nc(-c3ccc(Cl)cc3)c2-c2ccncn2)CC1` [Example 25, 2-{4-[3-(4-chlorophenyl)-4-pyrimidin-4-yl-1H-pyrazol-5-yl]piperidin-1-yl}-2-oxoethyl N,N-dimethylglycinate Hydrochloride] the figure was 0.0118 µM.
Still for that read-out and setting: with `OC1CCCC1N1CCC(c2[nH]nc(-c3ccc(Cl)cc3)c2-c2ccncn2)CC1` (stereo not shown) [Example 17, 2-{4-[3-(4-chlorophenyl)-4-pyrimidin-4-yl-1H-pyrazol-5-yl]piperidin-1-yl}cyclopentanol Fumarate] the figure was 0.0189 µM.
The same measure, in the same setting: the result for `C[C@@H](N[C@H]1CC[C@H](c2[nH]nc(-c3ccc(Cl)cc3)c2-c2ccncn2)CC1)c1ccc(F)cc1` [Example 5, 4-[3-(4-chlorophenyl)-4-pyrimidin-4-yl-1H-pyrazol-5-yl]-N-[(1R)-1-(4-fluorophenyl)ethyl]-trans-cyclohexanamine] reads 0.0232 µM; that for `CC(c1ccc(C(C)(C)O)cc1)N1CCC(c2[nH]nc(-c3ccc(Cl)cc3)c2-c2ccncn2)CC1` (stereo not shown) [Example 18, 2-[4-(1-{4-[3-(4-chlorophenyl)-4-pyrimidin-4-yl-1H-pyrazol-5-yl]piperidin-1-yl}ethyl)phenyl]propan-2-ol], 0.0106 µM.
Regarding `Fc1cc(Cl)ccc1-c1n[nH]c(C2CCNCC2)c1-c1ccncn1` [Example 26, 4-[3-(4-chloro-2-fluorophenyl)-5-piperidin-4-yl-1H-pyrazol-4-yl]pyrimidine], the concentration for half-maximal inhibition (IC50) was 0.0641 µM.
For `C[C@@H](N[C@H]1CC[C@H](c2[nH]nc(-c3ccc(Cl)cc3)c2-c2ccncn2)CC1)c1ccccc1` [Example 1, 4-[3-(4-chlorophenyl)-4-pyrimidin-4-yl-1H-pyrazol-5-yl]-N-[(1R)-1-phenylethyl]-trans-cyclohexanamine], the IC50 was 0.0314 µM.

Still in this assay, the particulars now being: Table 2; additional pyrazole compounds, Examples 56-169; read-out: p38α Kinase Inhibition (IC50 in μM).
Consider `COc1ccc(-c2n[nH]c(C3CCN(C(=O)CO)CC3)c2-c2ccncn2)cc1Cl` [Example 73], for which the IC50 was found to be 1.2 µM.
Regarding `C[C@@H](N[C@H]1CC[C@@H](c2[nH]nc(-c3ccc(Cl)cc3)c2-c2ccncn2)CC1)c1ccc(F)cc1` [Example 126], the IC50 worked out at 0.13 µM.
Same read-out and setting: with `CN(C)CCOc1nccc(-c2c(-c3cccc(Cl)c3)n[nH]c2C2CCN(C(=O)OC(C)(C)C)CC2)n1` [Example 137] the figure was 9.34 µM; with `C[C@H](O)C(=O)N1CCC(c2[nH]nc(-c3cccc(Cl)c3F)c2-c2ccncn2)CC1` [Example 109], 0.379 µM.
On the same count and under the same terms, with `CC(C)(C)OC(=O)N1CCC(c2[nH]nc(-c3ccc(Cl)cc3)c2-c2ccnc(OCCN3CCOCC3)n2)CC1` [Example 136] the figure was 16.9 µM; with `CN1CCC(c2[nH]nc(-c3ccc(Cl)cc3)c2-c2ccnc(NC3CCCC3)n2)CC1` [Example 148], 0.0148 µM; with `Cc1c(Cl)cccc1-c1n[nH]c(C2CCN(C(=O)CO)CC2)c1-c1ccncn1` [Example 88], 0.974 µM.
Same read-out and setting: with `O=C(CO)N1CCC(c2[nH]nc(-c3cccc(Cl)c3F)c2-c2ccncn2)CC1` [Example 106] the figure was 0.297 µM.
With `O=C(CO)N1CCC(c2[nH]nc(-c3ccc(F)c(C(F)(F)F)c3)c2-c2ccnc(NC3CCCC3)n2)CC1` [Example 169], the IC50 was found to be 0.0032 µM.
On to `O=C(CO)N1CCC(c2[nH]nc(-c3ccc(Cl)cc3)c2-c2ccnc(O[C@H]3CCOC3)n2)CC1` [Example 92], for which the IC50 turned out to be 0.14 µM.
Still for that read-out and setting: the result for `O=C(CO)N1CCC(c2[nH]nc(-c3ccc(Cl)cc3)c2-c2ccnc(O[C@@H]3CCOC3)n2)CC1` [Example 90] reads 0.34 µM.
The same measure, in the same setting: the result for `CSc1nccc(-c2c(-c3ccc(Cl)cc3)n[nH]c2C2CCN(C(=O)COC(C)=O)CC2)n1` [Example 93] reads 0.297 µM; that for `Clc1ccc(-c2n[nH]c(C3CCNCC3)c2-c2ccnc(NC3CCCC3)n2)cc1` [Example 141], 0.01 µM.
The same measure, in the same setting: with `Fc1ccc(-c2n[nH]c(C3CCNCC3)c2-c2ccnc(NC3CCCC3)n2)cc1C(F)(F)F` [Example 164] the figure was 0.0225 µM.
Regarding `COc1cc(-c2n[nH]c(C3CCN(C(=O)CO)CC3)c2-c2ccncn2)ccc1Cl` [Example 72], the IC50 worked out at 4.6 µM.
As for `CN(C)CCNc1nccc(-c2c(-c3ccc(F)c(C(F)(F)F)c3)n[nH]c2C2CCN(C)CC2)n1` [Example 166], the concentration for half-maximal inhibition (IC50) stood at 1.1 µM.
Still for that read-out and setting: the result for `O=C(CO)N1CCC(c2[nH]nc(-c3ccc(Cl)cc3O)c2-c2ccncn2)CC1` [Example 98] reads 1.31 µM; that for `O=C(CO)N1CCC(c2[nH]nc(-c3ccc(F)c(Cl)c3)c2-c2ccncn2)CC1` [Example 70], 0.147 µM; that for `C[C@H](O)C(=O)N1CCC(c2[nH]nc(-c3cc(F)cc(C(F)(F)F)c3)c2-c2ccncn2)CC1` [Example 115], 8.48 µM.
Still for that read-out and setting: the result for `O=C(CO)N1CCC(c2[nH]nc(-c3ccc(F)cc3F)c2-c2ccncn2)CC1` [Example 67] reads 0.248 µM.
Same read-out and setting: with `CN(C)CCNc1nccc(-c2c(-c3ccc(Cl)cc3)n[nH]c2C2CCN(C(=O)OC(C)(C)C)CC2)n1` [Example 143] the figure was 3.64 µM.
With `O=C(CO)N1CCC(c2[nH]nc(-c3cc(F)cc(Cl)c3)c2-c2ccncn2)CC1` [Example 104], the IC50 amounted to 1.1 µM.
Regarding `CC(C)(C)OC(=O)N1CCC(c2[nH]nc(-c3ccc(Cl)cc3)c2-c2ccnc(Oc3ccc(C#N)cc3)n2)CC1` [Example 135], the IC50 was found to be 1.5 µM.
Same read-out and setting: with `CC(C)(C)OC(=O)N1CCC(c2[nH]nc(-c3ccc(Cl)cc3)c2-c2ccnc(O[C@@H]3CCOC3)n2)CC1` [Example 132] the figure was 3.34 µM; with `COCCOCC(=O)N1CCC(c2[nH]nc(-c3ccc(Cl)cc3)c2-c2ccncn2)CC1` [Example 61], 0.764 µM.
Same read-out and setting: with `C[C@@H](N[C@H]1CC[C@H](c2[nH]nc(-c3ccc(Cl)cc3)c2-c2ccncn2)CC1)c1ccccc1` [Example 124] the figure was 0.0452 µM; with `CC(C)(C)OC(=O)N1CCC(c2[nH]nc(-c3ccc(Cl)cc3)c2-c2ccnc(OC3CCCC3)n2)CC1` [Example 131], 1.68 µM.
Same read-out and setting: the result for `CC(C)C(N)C(=O)OCC(=O)N1CCC(c2[nH]nc(-c3ccc(Cl)cc3)c2-c2ccncn2)CC1` (stereo not shown) [Example 57] reads 0.0285 µM; that for `CS(=O)(=O)N1CCC(c2[nH]nc(-c3ccc(Cl)cc3F)c2-c2ccnc(NC3CCCC3)n2)CC1` [Example 159], 0.0047 µM.
For the compound `CN(C)CC(=O)OCC(=O)N1CCC(c2[nH]nc(-c3ccc(Cl)cc3)c2-c2ccncn2)CC1` [Example 130], the IC50 is 0.0438 µM.
